From US9034904B2, “Forms of dexlansoprazole and processes for the preparation thereof” (APOTEX PHARMACHEM INC., priority 2009, dated 2015)

Assay: Chemical stability on storage (chemical purity by HPLC)
Type: physicochemical
Settings: for reduction in chemical purity by HPLC (area %): following 1 week of storage at 40° C. and 75% relative humidity (40° C./75% RH)

Row | SMILES | reduction in chemical purity by HPLC (area %) | chemical stability compared to other known forms of dexlansoprazole such as the amorphous form (qualitative statement, storage conditions not given)
1 | CC(O)CO.Cc1c(OCC(F)(F)F)ccnc1C[S@@+]([O-])c1nc2ccccc2[nH]1.O | essentially unchanged | 
2 | Cc1c(OCC(F)(F)F)ccnc1C[S@@+]([O-])c1nc2ccccc2[nH]1 |  | increased chemical stability
3 | Cc1c(OCC(F)(F)F)ccnc1C[S@@+]([O-])c1nc2ccccc2[nH]1 [amorphous form, (R)-2-[[[3-methyl-4-(2,2,2-trifluoroethoxy)-2-pyridinyl]methyl]sulfinyl]-1H-benzimidazole, reference compound] | 8.5 area % | 
